System: 454973-116-R2-J3-PDC complex spheroid viability
Experiment: Anticancer human tumor 454973-116-R2-J3-PDC patient-derived pancreatic carcinoma cell line growth inhibition [POLQ]
Settings: for IC50: curve of first compound; for viability, T/C: stronger effect = lower value
Procedure, shortened: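 Three-cell-type spheroids modelling solid tumor plus stroma served as the readout system; POL inhibitors were tested individually and in combination, concentration ranges set by clinical Cmax where known.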

[1] = second compound 0.0316 µM, first compound 0.00316 µM
[2] = second compound 0.0316 µM, first compound 0.01 µM
[3] = second compound 0.0316 µM, first compound 0.0316 µM
[4] = second compound 0.0316 µM, first compound 0.1 µM
[5] = second compound 0.0316 µM, first compound 0.316 µM
[6] = second compound 0.0316 µM, first compound 1 µM
[7] = second compound 0.1 µM, first compound 0.00316 µM
[8] = second compound 0.1 µM, first compound 0.01 µM
[9] = second compound 0.1 µM, first compound 0.0316 µM
[10] = second compound 0.1 µM, first compound 0.1 µM
[11] = second compound 0.1 µM, first compound 0.316 µM
[12] = second compound 0.1 µM, first compound 1 µM
[13] = second compound 0.316 µM, first compound 0.00316 µM
[14] = second compound 0.316 µM, first compound 0.01 µM
[15] = second compound 0.316 µM, first compound 0.0316 µM
[16] = second compound 0.316 µM, first compound 0.1 µM
[17] = second compound 0.316 µM, first compound 0.316 µM
[18] = second compound 0.316 µM, first compound 1 µM
[19] = second compound 1 µM, first compound 0.00316 µM
[20] = second compound 1 µM, first compound 0.01 µM
[21] = second compound 1 µM, first compound 0.0316 µM
[22] = second compound 1 µM, first compound 0.1 µM
[23] = second compound 1 µM, first compound 0.316 µM
[24] = second compound 1 µM, first compound 1 µM
[25] = second compound 3.16 µM, first compound 0.00316 µM
[26] = second compound 3.16 µM, first compound 0.01 µM
[27] = second compound 3.16 µM, first compound 0.0316 µM
[28] = second compound 3.16 µM, first compound 0.1 µM
[29] = second compound 3.16 µM, first compound 0.316 µM
[30] = second compound 3.16 µM, first compound 1 µM
[31] = second compound 10 µM, first compound 0.00316 µM
[32] = second compound 10 µM, first compound 0.01 µM
[33] = second compound 10 µM, first compound 0.0316 µM
[34] = second compound 10 µM, first compound 0.1 µM
[35] = second compound 10 µM, first compound 0.316 µM
[36] = second compound 10 µM, first compound 1 µM
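Further: spheroids exposed to drugs for seven days before measurement.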
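Wherever viability, T/C is given: percent viability relative to DMSO vehicle control wells taken as 100%.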

CCc1c2c(nc3ccc(O)cc13)-c1cc3c(c(=O)n1C2)COC(=O)[C@]3(O)CC + COC1C(OC(N)=O)C(O)C(Oc2ccc3c(O)c(NC(=O)c4ccc(O)c(CC=C(C)C)c4)c(=O)oc3c2C)OC1(C)C
IC50 (second compound 0.0316 µM): < 3.16 nM | IC50 (second compound 0.1 µM): < 3.16 nM | IC50 (second compound 0.316 µM): < 3.16 nM | IC50 (second compound 1 µM): < 3.16 nM | IC50 (second compound 3.16 µM): < 3.16 nM | IC50 (second compound 10 µM): < 3.16 nM | viability, T/C [1]: 37.3% | viability, T/C [2]: 16.3% | viability, T/C [3]: 8.76% | viability, T/C [4]: 4.34% | viability, T/C [5]: 4.57% | viability, T/C [6]: 0.92% | viability, T/C [7]: 38.9% | viability, T/C [8]: 13.7% | viability, T/C [9]: 10.5% | viability, T/C [10]: 6.92% | viability, T/C [11]: 2.75% | viability, T/C [12]: 1.04% | viability, T/C [13]: 37.1% | viability, T/C [14]: 15.8% | viability, T/C [15]: 14.7% | viability, T/C [16]: 4.68% | viability, T/C [17]: 2.98% | viability, T/C [18]: 1.19% | viability, T/C [19]: 34.1% | viability, T/C [20]: 14.2% | viability, T/C [21]: 12.5% | viability, T/C [22]: 6.32% | viability, T/C [23]: 3.96% | viability, T/C [24]: 3.08% | viability, T/C [25]: 31.2% | viability, T/C [26]: 13.9% | viability, T/C [27]: 9.37% | viability, T/C [28]: 4.13% | viability, T/C [29]: 2.03% | viability, T/C [30]: 2.74% | viability, T/C [31]: 29.1% | viability, T/C [32]: 15.1% | viability, T/C [33]: 11.4% | viability, T/C [34]: 6.62% | viability, T/C [35]: 3.37% | viability, T/C [36]: 1.53%

CNCc1ccc(-c2[nH]c3cc(F)cc4c3c2CCNC4=O)cc1 + COC1C(OC(N)=O)C(O)C(Oc2ccc3c(O)c(NC(=O)c4ccc(O)c(CC=C(C)C)c4)c(=O)oc3c2C)OC1(C)C
IC50 (second compound 0.0316 µM): > 10000 nM | IC50 (second compound 0.1 µM): > 10000 nM | IC50 (second compound 0.316 µM): > 10000 nM | IC50 (second compound 1 µM): > 10000 nM | IC50 (second compound 3.16 µM): > 10000 nM | IC50 (second compound 10 µM): > 10000 nM | viability, T/C [3]: 99.4% | viability, T/C [4]: 115% | viability, T/C [5]: 98.6% | viability, T/C [6]: 106% | viability, T/C (second compound 0.0316 µM, first compound 3.16 µM): 104% | viability, T/C (second compound 0.0316 µM, first compound 10 µM): 92% | viability, T/C [9]: 98.2% | viability, T/C [10]: 103% | viability, T/C [11]: 103% | viability, T/C [12]: 104% | viability, T/C (second compound 0.1 µM, first compound 3.16 µM): 106% | viability, T/C (second compound 0.1 µM, first compound 10 µM): 89.1% | viability, T/C [15]: 102% | viability, T/C [16]: 113% | viability, T/C [17]: 100% | viability, T/C [18]: 105% | viability, T/C (second compound 0.316 µM, first compound 3.16 µM): 95.8% | viability, T/C (second compound 0.316 µM, first compound 10 µM): 87.8% | viability, T/C [21]: 106% | viability, T/C [22]: 99% | viability, T/C [23]: 101% | viability, T/C [24]: 98.7% | viability, T/C (second compound 1 µM, first compound 3.16 µM): 97.8% | viability, T/C (second compound 1 µM, first compound 10 µM): 88% | viability, T/C [27]: 112% | viability, T/C [28]: 104% | viability, T/C [29]: 101% | viability, T/C [30]: 98.8% | viability, T/C (second compound 3.16 µM, first compound 3.16 µM): 99.3% | viability, T/C (second compound 3.16 µM, first compound 10 µM): 87.5% | viability, T/C [33]: 103% | viability, T/C [34]: 97.3% | viability, T/C [35]: 92.8% | viability, T/C [36]: 98.3% | viability, T/C (second compound 10 µM, first compound 3.16 µM): 92% | viability, T/C (second compound 10 µM, first compound 10 µM): 85.1%

COc1cccc(OCCCN)c1-c1cc(Nc2cnc(C#N)cn2)n[nH]1 + COC1C(OC(N)=O)C(O)C(Oc2ccc3c(O)c(NC(=O)c4ccc(O)c(CC=C(C)C)c4)c(=O)oc3c2C)OC1(C)C
IC50 (second compound 0.0316 µM): 16.9 nM | IC50 (second compound 0.1 µM): 16.5 nM | IC50 (second compound 0.316 µM): 15.2 nM | IC50 (second compound 1 µM): 15.5 nM | IC50 (second compound 3.16 µM): 15.8 nM | IC50 (second compound 10 µM): 15.1 nM | viability, T/C [1]: 103% | viability, T/C [2]: 78% | viability, T/C [3]: 16.5% | viability, T/C [4]: 5.78% | viability, T/C [5]: 6.6% | viability, T/C [6]: 5.48% | viability, T/C [7]: 103% | viability, T/C [8]: 78.8% | viability, T/C [9]: 12.9% | viability, T/C [10]: 5.6% | viability, T/C [11]: 5.16% | viability, T/C [12]: 6.37% | viability, T/C [13]: 95.6% | viability, T/C [14]: 70.8% | viability, T/C [15]: 13.3% | viability, T/C [16]: 5.72% | viability, T/C [17]: 3.83% | viability, T/C [18]: 4.13% | viability, T/C [19]: 97% | viability, T/C [20]: 73.2% | viability, T/C [21]: 12.2% | viability, T/C [22]: 6.82% | viability, T/C [23]: 5.97% | viability, T/C [24]: 5.82% | viability, T/C [25]: 107% | viability, T/C [26]: 75.5% | viability, T/C [27]: 11% | viability, T/C [28]: 7.17% | viability, T/C [29]: 6.78% | viability, T/C [30]: 5.38% | viability, T/C [31]: 104% | viability, T/C [32]: 68% | viability, T/C [33]: 17.8% | viability, T/C [34]: 6.01% | viability, T/C [35]: 7.28% | viability, T/C [36]: 7.27%

From PubChem BioAssay AID1963846 (Molecular Pharmacology Branch, DTP, NCI, 2024)
